Patent EP1276895B1, “METHOD FOR THE IDENTIFICATION OF ACTIVE SITE PROTEASE INACTIVATORS” (THE UNIVERSITY OF GEORGIA RESEARCH FOUNDATION, INC., priority 2000, dated 2001)
Residues, ends and D or L forms follow the SMILES beside them. *: point of attachment. AFC = O=c1cc(C(F)(F)F)c2ccc(N*)cc2o1; Cbz = O=C(OCc1ccccc1)*; CH2F = FC*

How the values were obtained:
[1] = test system: purified Taenia solium cysteine protease; assay: Differential cleavage (selectivity) test, T. solium protease; format: biochemical
Experimental: (§1) In order to perform the assay, the vehicle (for Step VI) or inhibitor (for Step IX) were incubated with the appropriate substrate in the correct assay buffer and allowed to equilibrate. Subsequently, the protease was added, and the assay was allowed to incubate for an appropriate time. The concentrations used in this experiment were as follows: Vehicle was set up at 4 X 10^-5 M in final assay buffer; Inhibitor was set up at 3 X 10^-10 M in the final assay buffer. Accordingly, the dosages employed should be the minimal amount of vehicle or inhibitor necessary to induce inhibition. […] Substrates were set up based upon the preferred substrate for cleavage of the particular enzyme.
(§2) Positive controls were set up similarly as described for test controls, except that solvent was added in substitution for the inhibitor or vehicle (in a volume equal to the volume of inhibitor or vehicle addition). All of the inhibitors and vehicles could be dissolved in dimethylsulfoxide (DMSO), and therefore, this was the solvent of choice. Negative controls were set up by adding the inhibitor or vehicle and the preferred substrates in a tube without the protease. All potential non-proteolytic liberation of AFC was therefore controlled for in this tube (a feature which also insured stability of the AFC substrates, since these substrates will freely liberate AFC when unstable).
(§3) All controls were set up in triplicate, and experiments were repeated a minimum of five times.
(§4) Percent inhibition was calculated as: % Inhibition = ((AFC positive for ʺSIʺ-AFC negative for ʺSIʺ)-(AFC test-AFC negative for ʺSIʺ))/(AFC positive for ʺSIʺ-AFC negative for ʺSIʺ) × 100 [formula] In this preliminary test, we employed the following human-derived enzymes (with indicated mechanistic class): Cathepsin B (cysteine), Cathepsin L (cysteine), Cathepsin H (cysteine), Cathepsin D (aspartic) Trypsin (serine), the purified Taenia solium cysteine protease, and the Taenia solium crude mix. Cathepsin B was prepared in an assay buffer of 10 mM L-cysteine in 0.4 M Citrate buffer, pH 6.1, using Z-ARR-AFC as the cleavage substrate. Cathepsin L was prepared in an assay buffer of 10 mM L-cysteine in 0.4 M Citrate buffer, pH 5.5, using Z-FR-AFC as the cleavage substrate. Cathepsin H was prepared in an assay buffer of 10 mM L-cysteine in 0.15 M PBS buffer, pH 6.8, using L-R-AFC as the cleavage substrate. Cathepsin D was prepared in an assay buffer of 0.15 M PBS, pH 7.1, using Z-RGFFP-AFC as the cleavage substrate. Trypsin was prepared in an assay buffer of 0.15 M PBS, pH 8.0, supplemented with 100 mM CaCl2 and with Z-R-AFC as the cleavage substrate. Enzyme was incubated so that it was at least 50 times less than the concentration of substrate in order to insure saturating conditions.

[2] = biological target: Cathepsin B (cysteine) (Homo sapiens, UniProt P07858); assay: Differential cleavage (selectivity) test, Cathepsin B; format: biochemical; conditions: 0.4 M Citrate pH 6.1, 10 mM L-cysteine, substrate Z-ARR-AFC; for inhibition at 0.0003 µM: inhibitor 3 X 10^-10 M
Experimental: as §1, §2, §3, §4

[3] = biological target: Cathepsin D (aspartic) (Homo sapiens, UniProt P07339); assay: Differential cleavage (selectivity) test, Cathepsin D; format: biochemical; conditions: 0.15 M PBS pH 7.1, substrate Z-RGFFP-AFC; for inhibition at 0.0003 µM: inhibitor 3 X 10^-10 M
Experimental: as §1, §2, §3, §4

[4] = biological target: T1, Cathepsin H (cysteine) (Homo sapiens, UniProt P09668); assay: Differential cleavage (selectivity) test, Cathepsin H; format: biochemical; conditions: 0.15 M PBS pH 6.8, 10 mM L-cysteine, substrate L-R-AFC; for inhibition at 0.0003 µM: inhibitor 3 X 10^-10 M
T1 sequence (P09668 98-335): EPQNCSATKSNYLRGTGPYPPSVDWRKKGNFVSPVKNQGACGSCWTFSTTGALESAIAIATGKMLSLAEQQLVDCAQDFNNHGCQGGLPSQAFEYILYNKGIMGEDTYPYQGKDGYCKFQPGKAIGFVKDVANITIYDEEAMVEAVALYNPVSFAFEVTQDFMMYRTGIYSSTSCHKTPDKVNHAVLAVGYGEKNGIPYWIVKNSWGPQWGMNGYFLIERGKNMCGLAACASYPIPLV
Experimental: as §1, §2, §3, §4

[5] = test system: Trypsin (serine); assay: Differential cleavage (selectivity) test, Trypsin; format: biochemical, human; conditions: 0.15 M PBS pH 8.0, 100 mM CaCl2, substrate Z-R-AFC
Experimental: as §1, §2, §3, §4

[6] = biological target: Cathepsin L (cysteine) (Homo sapiens, UniProt P07711); assay: Differential cleavage (selectivity) test, Cathepsin L; format: biochemical; conditions: 0.4 M Citrate pH 5.5, 10 mM L-cysteine, substrate Z-FR-AFC
Experimental: as §1, §2, §3, §4

[7] = test system: purified Taenia solium cysteine protease; assay: Substrate cleavage screen of AFC-linked synthetic substrates (Step II), purified protease; format: biochemical; conditions: 1 ug purified protease, 1 ug substrate, Citrate pH 4.9 with 0.01 M cysteine, 18 h, 37 °C
[8] = inhibitor 3 X 10^-10 M, 0.0003 µM

Sequence of Cathepsin D (aspartic) (P07339 65-412): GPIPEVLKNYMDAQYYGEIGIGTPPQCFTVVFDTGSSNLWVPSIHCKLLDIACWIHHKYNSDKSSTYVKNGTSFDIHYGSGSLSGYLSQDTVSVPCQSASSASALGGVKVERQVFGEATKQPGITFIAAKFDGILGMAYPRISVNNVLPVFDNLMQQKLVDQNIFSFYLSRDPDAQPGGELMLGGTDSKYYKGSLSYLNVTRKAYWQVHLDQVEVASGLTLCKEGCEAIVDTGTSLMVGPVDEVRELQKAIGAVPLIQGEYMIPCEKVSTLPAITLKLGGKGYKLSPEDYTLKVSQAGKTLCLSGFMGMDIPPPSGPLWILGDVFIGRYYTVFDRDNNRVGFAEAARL
Sequence of Cathepsin L (cysteine) (P07711 114-333): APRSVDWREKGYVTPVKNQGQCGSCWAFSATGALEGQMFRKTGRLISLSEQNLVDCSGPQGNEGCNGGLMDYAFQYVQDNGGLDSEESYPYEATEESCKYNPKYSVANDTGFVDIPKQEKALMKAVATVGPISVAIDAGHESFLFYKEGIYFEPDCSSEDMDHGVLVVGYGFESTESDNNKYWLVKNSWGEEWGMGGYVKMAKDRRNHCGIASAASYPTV

Molecule	% Inhibition ([1]; inhibitor 3 X 10^-10 M) [%]	inhibition at 0.0003 µM [2] [%]	inhibition at 0.0003 µM [3] [%]	inhibition at 0.0003 µM [4] [%]	% Inhibition [5, 8] [%]	inhibition at 0.0003 µM ([6]; inhibitor 3 X 10^-10 M) [%]	% Inhibition [6, 8]	% Inhibition ([1]; vehicle 4 X 10^-5 M) [%]	inhibition at 40 µM ([2]; vehicle 4 X 10^-5 M) [%]	inhibition at 40 µM ([3]; vehicle 4 X 10^-5 M) [%]	inhibition at 40 µM ([4]; vehicle 4 X 10^-5 M) [%]	% Inhibition ([5]; vehicle 4 X 10^-5 M, 40 µM) [%]	cleavage of AFC-linked substrate (Vmax) [7]	inhibition at 40 µM ([6]; vehicle 4 X 10^-5 M) [%]	% Inhibition ([2]; vehicle 4 X 10^-5 M, 40 µM) [%]	% Inhibition ([3]; vehicle 4 X 10^-5 M, 40 µM) [%]	% Inhibition ([4]; vehicle 4 X 10^-5 M, 40 µM) [%]	cleavage of AFC-linked substrate (Vmax) ([7]; listed as M-LY-AFC)	% Inhibition ([6]; vehicle 4 X 10^-5 M) [%]	% Inhibition ([6]; vehicle 4 X 10^-5 M, 40 µM)
CC(C)C[C@H](NC(=O)[C@H](CC(C)C)NC(=O)[C@H](CC(C)C)NC(=O)OCc1ccccc1)C(=O)CF [Z-LLL-FMK, Z-Leu-Leu-Leu-fluoromethylketone] (Cbz-Leu-Leu-Leu-CH2F)	98	0	0	0	0	50	almost half of the inhibition of the Taenia solium cysteine protease	–	–	–	–	–	–	–	–	–	–	–	–	–
CC(C)C[C@H](NC(=O)OCc1ccccc1)C(=O)N[C@@H](CC(C)C)C(=O)N[C@@H](Cc1ccc(O)cc1)C(=O)Nc1ccc2c(C(F)(F)F)cc(=O)oc2c1 [Z-LLY-AFC, Z-Leu-Leu-Tyr-AFC] (Cbz-Leu-Leu-Tyr-{AFC})	–	–	–	–	–	–	–	70	0	0	0	0	noncleavable	0	–	–	–	–	–	–
CC(C)C[C@H](NC(=O)OCc1ccccc1)C(=O)N[C@@H](CC(C)C)C(=O)N[C@@H](CC(C)C)C(=O)Nc1ccc2c(C(F)(F)F)cc(=O)oc2c1 [Z-LLL-AFC, Z-Leu-Leu-Leu-AFC] (Cbz-Leu-Leu-Leu-{AFC})	–	–	–	–	–	–	–	68	0	0	0	0	noncleavable	0	–	–	–	–	–	–
CC(C)C[C@H](NC(=O)OCc1ccccc1)C(=O)N[C@@H](CC(C)C)C(=O)N[C@@H](Cc1ccc(O)cc1)C(=O)CF [Z-LLY-FMK, Z-Leu-Leu-Tyr-FMK] (Cbz-Leu-Leu-Tyr-CH2F)	62	0	0	0	0	0	did not inhibit cathepsin L at all	–	–	–	–	–	–	–	–	–	–	–	–	–
Mu-Leu-Tyr-AFC [Mu-LY-AFC]	–	–	–	–	–	–	–	75	–	–	–	0	not cleaved	–	0	0	0	noncleavable	25	subtle inhibition
